Values of other authors, collected in patent US6576633B1, “Stable liquid antimicrobial suspension compositions containing quarternaries prepared from hexamethylenetetramine and certain halohydrocarbons” (The Dow Chemical Company, priority 1996, dated 2003).

Settings: conventional 30 percent aqueous solution; within one month

| SMILES | chemical degradation [%] |
| --- | --- |
| ClC=CC[N+]12CN3CN(CN(C3)C1)C2.[Cl-] (mixture of isomers) [cis/trans-compound, 1-(3-chloroallyl)-3,5,7-triaza-1-azoniaadamantane chloride] | ~30 |
| ClC=CC[N+]12CN3CN(CN(C3)C1)C2.[Cl-] [cis-compound, 1-(3-chloroallyl)-3,5,7-triaza-1-azoniaadamantane chloride] | ~30 |
